We go through 20 molecules from patent publication US11827628B2, “Compositions and methods for inhibition of the JAK pathway” (Rigel Pharmaceuticals, Inc., priority 2005, dated 2023).

Assay [1] relates to Primary human T-cells. The experiment in a line: Primary Human T-Cell Proliferation Assay Stimulated with IL-2 (CellTiter-Glo). The class given is cell-based. The conditions noted are these: read-out: IC50, Example 42. An outline of the steps: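 Peripheral blood T-cells pre-activated with anti-CD3/anti-CD28 and IL-2 were washed free of IL-2, then cultured with compound plus IL-2 for 72 hours at 37° C, duplicate wells. Viability read as ATP by CellTiter-Glo luminescence; IC50 reported.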
A general note: In ATP-based viability assays light output follows the ATP content of the culture.

The subject of assay [2] is IL-4 stimulated expression of CD23 in human Ramos B cells (JAK-1 and JAK-3). The experiment in a line: Assay for Ramos B-Cell Line Stimulated with IL-4 (CD23 upregulation, FACS). The conditions noted are these: read-out: IC50, Example 41. The class given is cell-based. An outline of the steps:
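Human Ramos B cells (5×10^4 per point, RPMI 5% serum) pre-incubated 1 h at 37 °C with compound or DMSO, then stimulated with IL-4 at 50 units/mL final for 20-24 h. CD23 upregulation measured by anti-CD23-PE staining and flow cytometry; IC50 derived.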

The mark [3] stands for this setting: primary human T-cell proliferation stimulated with IL-2.
[4] abbreviates: Ramos B-cell line stimulated with IL-4, CD23 expression by FACS.
Setting [5] is: primary human T-cells stimulated with IL-2, proliferation.
The mark [6] stands for this setting: Ramos B cells stimulated with IL-4, CD23 expression by FACS.

Where two headings read alike, the source gives them in different places.

A word on the IC50: it is the concentration needed to halve the response being measured. In the case of `CC(Oc1ccc(Nc2nc(Nc3cccc(S(N)(=O)=O)c3)ncc2F)cc1)C(N)=O` (racemic) [Compound I-117, Racemic N4-[4-(1-Aminocarbonyl)ethoxy]phenyl-N2-(3-aminosulfonyl)phenyl-5-fluoro-2,4-pyrimidinediamine], the IC50 came out at 0.301 µM in assay [1] (setting [3]) and 0.353 µM in assay [2] (setting [4]).
Take `Cc1cc(Nc2nc(Nc3ccc(S(N)(=O)=O)cc3)ncc2F)ccc1OC(C)C(N)=O` (racemic) [Compound I-119, Racemic N4-[4-(1-Aminocarbonyl)ethoxy-3-methyl]phenyl-N2-(4-aminosulfonyl)phenyl-5-fluoro-2,4-pyrimidinediamine]: the IC50 in assay [1] (setting [3]) turned out to be 2.44 µM; in assay [2] (setting [4]) it was 0.211 µM.
Regarding `Cc1cc(Nc2nc(Nc3cccc(S(N)(=O)=O)c3)ncc2F)ccc1OC(C)C(N)=O` (racemic) [Compound I-120, Racemic N4-[4-(1-Aminocarbonyl)ethoxy-3-methyl]phenyl-N2-(3-aminosulfonyl)phenyl-5-fluoro-2,4-pyrimidinediamine], the IC50 in assay [1] (setting [3]) was found to be 0.28 µM; in assay [2] (setting [4]) it was 0.201 µM.
On to `Cc1cc(Nc2nc(Nc3ccc(C)c(S(N)(=O)=O)c3)ncc2F)ccc1OC(C)C(N)=O` (racemic) [Compound I-121, Racemic N4-[4-(1-Aminocarbonyl)ethoxy-3-methyl]phenyl-N2-(3-aminosulfonyl-4-methyl)phenyl-5-fluoro-2,4-pyrimidinediamine], for which the IC50 in assay [1] (setting [3]) was 0.634 µM; in assay [2] (setting [4]), 0.184 µM.
In the same order, the values of `Cc1cc(Nc2nc(Nc3ccc(S(N)(=O)=O)cc3)ncc2F)cc(C)c1OC(C)C(N)=O` (racemic) [Compound I-122, Racemic N4-[4-(1-Aminocarbonyl)ethoxy-3,5-dimethyl]phenyl-N2-(4-aminosulfonyl)phenyl-5-fluoro-2,4-pyrimidinediamine] are 3.5 µM and 0.292 µM.
Take `Cc1cc(Nc2nc(Nc3cccc(S(N)(=O)=O)c3)ncc2F)cc(C)c1OC(C)C(N)=O` (racemic) [Compound I-123, Racemic N4-[4-(1-Aminocarbonyl)ethoxy-3,5-dimethyl]phenyl-N2-(3-aminosulfonyl)phenyl-5-fluoro-2,4-pyrimidinediamine]: the IC50 was determined as 0.225 µM in assay [1] (setting [3]) and 0.159 µM in assay [2] (setting [4]).
Regarding `Cc1ccc(Nc2ncc(F)c(Nc3cc(C)c(OC(C)C(N)=O)c(C)c3)n2)cc1S(N)(=O)=O` (racemic) [Compound I-124, Racemic N4-[4-(1-Aminocarbonyl)ethoxy-3,5-dimethyl]phenyl-N2-(3-aminosulfonyl-4-methyl)phenyl-5-fluoro-2,4-pyrimidinediamine], the IC50 in assay [1] (setting [3]) amounted to 0.342 µM; in assay [2] (setting [4]) it was 0.102 µM.
For `Cc1ccc(Nc2ncc(F)c(Nc3ccc4c(c3)CC(C(=O)N(C)C)O4)n2)cc1S(N)(=O)=O` (racemic) [VII-26, Racemic N2-(3-Aminosulfonyl-4-methylphenyl)-N4-[2-(N,N-dimethylaminocarbonyl)-2,3-dihydrobenzofuran-5-yl]-5-fluoro-2,4-pyrimidinediamine], the IC50 was found to be 1.2 µM in assay [1] (setting [5]) and 0.545 µM in assay [2] (setting [6]).
`CN(C)C(=O)C1Cc2cc(Nc3nc(Nc4ccc(Cl)c(S(N)(=O)=O)c4)ncc3F)ccc2O1` (racemic) [VII-27, Racemic N2-(3-Aminosulfonyl-4-chlorophenyl)-N4-[2-(N,N-dimethylaminocarbonyl)-2,3-dihydrobenzofuran-5-yl]-5-fluoro-2,4-pyrimidinediamine]: the IC50 in assay [1] (setting [5]) came to 2.05 µM; in assay [2] (setting [6]) it was 0.413 µM.
`CC(C)c1ccc(Nc2ncc(F)c(Nc3ccc(OCC#N)cc3)n2)cc1S(N)(=O)=O` [Compound I-8, N2-(3-Aminosulfonyl-4-iso-propylphenyl)-N4-(4-cyanomethyleneoxyphenyl)-5-fluoro-2,4-pyrimidinediamine]: the IC50 in assay [1] (setting [3]) worked out at 0.174 µM; in assay [2] (setting [4]), 0.0587 µM.
In the same order, the values of `CN1CCN(c2ccc(Nc3ncc(F)c(Nc4ccc(OCC#N)cc4)n3)cc2S(N)(=O)=O)CC1` [Compound I-9, N2-[3-Aminosulfonyl-4-(4-methylpiperazin-1-yl)phenyl]-5-fluoro-N4-(4-cyanomethyleneoxyphenyl)-2,4-pyrimidinediamine] are 0.485 µM and 0.233 µM.
Turning to `CN1CCN(c2ccc(Nc3ncc(F)c(Nc4ccc(OCC#N)c(F)c4)n3)cc2S(N)(=O)=O)CC1` [Compound I-10, N2-[3-Aminosulfonyl-4-(4-methylpiperazine-1-yl)phenyl]-5-fluoro-N4-(4-cyanomethyleneoxy-3-fluorophenyl)-2,4-pyrimidinediamine], the IC50 was determined as 0.0957 µM in assay [1] (setting [3]) and 0.0255 µM in assay [2] (setting [4]).
For `Cc1ccc(Nc2ncc(F)c(Nc3ccc(OCC#N)c(F)c3)n2)cc1S(N)(=O)=O` [Compound I-11, N2-(3-Aminosulfonyl-4-methylphenyl)-5-fluoro-N4-(4-cyanomethyleneoxy-3-fluorophenyl)-2,4-pyrimidinediamine] the same measures were 0.0393 µM and 0.0233 µM.
Consider `N#CCOc1ccc(Nc2nc(Nc3cccc(S(N)(=O)=O)c3)ncc2F)cc1F` [Compound I-12, N2-(3-Aminosulfonylphenyl)-5-fluoro-N4-(4-cyanomethyleneoxy-3-fluorophenyl)-2,4-pyrimidinediamine], for which the values for the half-maximal inhibitory concentration (IC50) in assay [1] (setting [3]) and in assay [2] (setting [4]) were 0.0597 µM and 0.0369 µM, respectively.
Regarding `N#CCOc1ccc(Nc2nc(Nc3cccc(S(N)(=O)=O)c3)ncc2Br)cc1` [Compound I-13, N2-(3-Aminosulfonylphenyl)-5-bromo-N4-(4-cyanomethyleneoxyphenyl)-2,4-pyrimidinediamine], the values for the IC50 in assay [1] (setting [3]) and in assay [2] (setting [4]) were 0.00505 µM and 0.00627 µM, respectively.
As to `Cc1ccc(Nc2ncc(Br)c(Nc3ccc(OCC#N)cc3)n2)cc1S(N)(=O)=O` [Compound I-14, N2-(3-Aminosulfonyl-4-methylphenyl)-5-bromo-N4-(4-cyanomethyleneoxyphenyl)-2,4-pyrimidinediamine], the IC50 in assay [1] (setting [3]) turned out to be 0.0115 µM; in assay [2] (setting [4]) it was 0.013 µM.
For the molecule `C[Si](C)(C)C#Cc1cnc(Nc2cccc(S(N)(=O)=O)c2)nc1Nc1ccc(OCC#N)cc1` [Compound I-15, N2-(3-Aminosulfonylphenyl)-N4-(4-cyanomethyleneoxyphenyl)-5-trimethylsilylacetylene-2,4-pyrimidinediamine], the half-inhibitory concentration (IC50) amounted to 1.18 µM in assay [1] (setting [3]) and 0.309 µM in assay [2] (setting [4]).
In the same order, the values of `Cc1ccc(Nc2ncc(F)c(Nc3cc(C)c(OCC(N)=O)c(C)c3)n2)cc1S(N)(=O)=O` [Compound I-96, N4-(4-Aminocarbonylmethoxy-3,5-dimethyl)phenyl-N2-(3-aminosulfonyl-4-methyl)phenyl-5-fluoro-2,4-pyrimidinediamine] are 0.772 µM and 0.132 µM.
In the case of `Cc1cc(Nc2nc(Nc3ccc(S(N)(=O)=O)cc3)ncc2F)ccc1OCC(N)=O` [Compound I-113, N4-(4-Aminocarbonylmethoxy-3-methyl)phenyl-N2-(4-aminosulfonyl)phenyl-5-fluoro-2,4-pyrimidinediamine], the IC50 amounted to 1.69 µM in assay [1] (setting [3]) and 0.165 µM in assay [2] (setting [4]).
Regarding `Cc1ccc(Nc2ncc(F)c(Nc3ccc(OC(C)C(N)=O)cc3)n2)cc1S(N)(=O)=O` (stereo not shown) [Compound I-118, N4-[4-(1-Aminocarbonyl)ethoxy]phenyl-N2-(3-aminosulfonyl-4-methyl)phenyl-5-fluoro-2,4-pyrimidinediamine], the figures for the IC50 in assay [1] (setting [3]) and in assay [2] (setting [4]) were 0.557 µM and 0.292 µM, respectively.
